# Test results reported in patent US8124629B2, “Naphthylacetic acids” (Hoffmann-La Roche Inc., priority 2008, dated 2012).
# pIC50: −log10 of the molar value.
# Biological target: T1, human CRTH2 (Homo sapiens, UniProt Q9Y5Y4)
# T1 sequence (Q9Y5Y4 1-395): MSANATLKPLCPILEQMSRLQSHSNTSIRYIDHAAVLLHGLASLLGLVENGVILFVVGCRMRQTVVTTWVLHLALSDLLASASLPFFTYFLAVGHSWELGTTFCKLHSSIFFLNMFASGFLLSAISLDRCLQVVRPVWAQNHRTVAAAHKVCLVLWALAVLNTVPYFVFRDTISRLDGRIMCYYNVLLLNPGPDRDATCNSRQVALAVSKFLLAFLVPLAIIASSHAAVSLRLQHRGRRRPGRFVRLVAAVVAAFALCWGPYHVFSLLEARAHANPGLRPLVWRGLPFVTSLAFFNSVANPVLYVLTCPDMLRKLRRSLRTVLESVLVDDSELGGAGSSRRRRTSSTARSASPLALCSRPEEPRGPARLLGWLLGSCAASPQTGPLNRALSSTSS
# Assay: Human CRTH2 Receptor Binding Assay (whole cell, [3H]ramatroban)
# Parameters: expressed in transfected cells; host or cells: CHO-K1
# Conditions: CHO-K1 cells expressing human CRTH2 and G-alpha16; 20 nM [3H]ramatroban; 1 hour, room temperature
# Description: A whole cell receptor binding assay using [^3H]ramatroban as the competing radioactive ligand was employed to evaluate the compound binding activity to human CRTH2. The radioactive ligand [^3H]ramatroban was synthesized according to Sugimoto et. al. (Eur. J. Pharmacol. 524, 30-37, 2005) to a specific activity of 42 Ci/mmol.
# A cell line stably expressing human CRTH2 was established by transfecting CHO-K1 cells with two mammalian expression vectors that harbored human CRTH2 and G-alpha16 cDNAs, respectively, using FuGene® 6 transfection reagent (from Roche). Stable clones expressing CRTH2 were selected by staining each clone with BM16 (BD Pharmingen™ from BD Biosciences, a division of Becton, Dickinson and Company), which is a rat monoclonal antibody to human CRTH2. The cells were maintained as monolayer cultures in Ham's F-12 medium containing 10% fetal bovine serum, 100 units/mL penicillin, 100 μg/mL streptomycin, 2 mM glutamine, 0.5 mg/mL G418 (geneticin) for CRTH2, and 0.2 mg/mL hygromycin-B (for G-alpha 16). For whole cell receptor binding assay, the monolayer cells were rinsed once with PBS (phosphate buffered saline), dissociated using ethylenediaminetetraacetate (Versene™ EDTA from Lonza Inc.), and suspended in PBS containing 10 mM MgCl2 and 0.06% BSA (bovine serum albumin) at 1.5×10^6 cells/mL.
# The binding reactions (0.2 mL) were performed in 96-well plates at room temperature in PBS containing 1.5×10^5 cells, 10 mM MgCl2, 0.06% BSA, 20 nM [^3H]ramatroban, and test compound at various concentrations. After 1 hour of binding reactions, the cells were harvested on GF™/B filter microplates (microtiter plates with embedded glass fiber from Perkin Elmer, Inc.) and washed 5 times with PBS using a Filtermate™ Harvester (a cell harvester that harvests and washes cells from microplates from PerkinElmer, Inc.). The radioactivities bound to the cells were determined using a microplate scintillation counter (TopCount® NXT, from PerkinElmer, Inc.) after adding 50 μL of Microscint™ 20 scintillation fluid (from PerkinElmer, Inc.) to each well of the filter plates. The radioactivity from non-specific binding was determined by replacing compound with 10 μM of 15(R)-15-methyl PGD2 (from Cayman Chemical Company) in the reaction mixtures. The radioactivity bound to the cells in the absence of compound (total binding) was determined by replacing compound with 0.25% of DMSO (dimethyl sulfoxide) in the reaction mixture. Specific binding data were obtained by subtracting the radioactivity of non-specific binding from each binding data.
# The IC50 value is defined as the concentration of the tested compound that is required for 50% inhibition of total specific binding. In order to calculate the IC50 value, the percent inhibition data were determined for 7 concentrations for each compound. The percent inhibition for a compound at each concentration was calculated according to the following formula, [1-(specific binding in the presence of compound)/(total specific binding)]×100. The IC50 value was then obtained by fitting the percent inhibition data to a sigmoidal dose-response (4 parameter logistic) model in the XLfit® software Excel add-in program [from ID Business Solutions Ltd., model 205, where F(x)=(A+(B−A)/(1+((C/×)^D)))].
row,Compound,pIC50
1,CC(C)(C)OC(=O)N1CCN(S(=O)(=O)c2ccc(C(=O)c3cc(CC(=O)O)cc4ccc(F)cc34)cc2)CC1 [Example 4-2],7.57
2,"Cc1c(CC(=O)O)cc2ccc(F)cc2c1C(=O)c1ccc(S(C)(=O)=O)cc1 [Example 6-1, [6-fluoro-4-(4-methanesulfonyl-benzoyl)-3-methyl-naphthalen-2-yl]-acetic acid]",8.68
3,"Cc1c(CC(=O)O)cc2ccc(Cl)cc2c1C(=O)c1ccc(S(C)(=O)=O)cc1 [Example 6-2, [6-Chloro-4-(4-methanesulfonyl-benzoyl)-3-methyl-naphthalen-2-yl]-acetic acid]",8.43
4,"CCS(=O)(=O)c1ccc(C(=O)c2c(C)c(CC(=O)O)cc3ccc(F)cc23)cc1 [Example 6-3, [4-(4-Ethanesulfonyl-benzoyl)-6-fluoro-3-methyl-naphthalen-2-yl]-acetic acid]",8.62
5,"Cc1ccc2cc(CC(=O)O)cc(Cc3ccc(S(C)(=O)=O)cc3)c2c1 [Example 8-1, [4-(4-Methanesulfonyl-benzyl)-6-methyl-naphthalen-2-yl]-acetic acid]",7.06
6,"CS(=O)(=O)c1ccc(Cc2cc(CC(=O)O)cc3ccc(C(F)(F)F)cc23)cc1 [Example 8-2, [4-(4-Methanesulfonyl-benzyl)-6-trifluoromethyl-naphthalen-2-yl]-acetic acid]",7.82
7,"CS(=O)(=O)c1ccc(Cc2cc(CC(=O)O)cc3ccc(F)cc23)cc1 [Example 8-4, [6-Fluoro-4-(4-methanesulfonyl-benzyl)-naphthalen-2-yl]-acetic acid]",8.21
8,"Cc1cc(S(C)(=O)=O)ccc1Cc1cc(CC(=O)O)cc2ccc(F)cc12 [Example 8-5, [6-Fluoro-4-(4-methanesulfonyl-2-methyl-benzyl)-naphthalen-2-yl]-acetic acid]",8.28
9,"CS(=O)(=O)c1ccc(Cc2cc(CC(=O)O)cc3ccc(F)cc23)cc1C(F)(F)F [Example 8-6, [6-Fluoro-4-(4-methanesulfonyl-3-trifluoromethyl-benzyl)-naphthalen-2-yl]-acetic acid]",8.27
10,"CCS(=O)(=O)c1ccc(Cc2cc(CC(=O)O)cc3ccc(F)cc23)c(C)c1 [Example 8-7, [4-(4-Ethanesulfonyl-2-methyl-benzyl)-6-fluoro-naphthalen-2-yl]-acetic acid]",8.27
11,"CN(C)S(=O)(=O)c1ccc(Cc2cc(CC(=O)O)cc3ccc(F)cc23)cc1 [Example 8-8, [4-(4-Dimethylsulfamoyl-benzyl)-6-fluoro-naphthalen-2-yl]-acetic acid]",8.22
12,"CCS(=O)(=O)c1ccc(Cc2cc(CC(=O)O)cc3ccc(F)cc23)cc1 [Example 8-9, [4-(4-Ethanesulfonyl-benzyl)-6-fluoro-naphthalen-2-yl]-acetic acid]",8.37

# Now from value to compound:
row,pIC50,Compound
1,8.49,"CNS(=O)(=O)c1ccc(Cc2cc(CC(=O)O)cc3ccc(F)cc23)cc1 [Example 9-1, [6-Fluoro-4-(4-methylsulfamoyl-benzyl)-naphthalen-2-yl]-acetic acid]"
2,8.41,"Cc1c(CC(=O)O)cc2ccc(F)cc2c1Cc1ccc(S(C)(=O)=O)cc1 [Example 10-1, [6-Fluoro-4-(4-methanesulfonyl-benzyl)-3-methyl-naphthalen-2-yl]-acetic acid]"
3,7.27,"Cc1c(CC(=O)O)cc2ccc(F)cc2c1Cc1cccc(S(C)(=O)=O)c1 [Example 10-2, [6-Fluoro-4-(3-methanesulfonyl-benzyl)-3-methyl-naphthalen-2-yl]-acetic acid]"
4,8.49,"Cc1c(CC(=O)O)cc2ccc(F)cc2c1Cc1ccc(S(=O)(=O)c2ccccc2)cc1 [Example 10-3, [4-(4-Benzenesulfonyl-benzyl)-6-fluoro-3-methyl-naphthalen-2-yl]-acetic acid]"
5,7.62,"Cc1c(CC(=O)O)cc2ccc(F)cc2c1Cc1ccc(Br)cc1 [Example 10-4, [4-(4-Bromo-benzyl)-6-fluoro-3-methyl-naphthalen-2-yl]-acetic acid]"
6,7.91,"Cc1c(CC(=O)O)cc2ccc(F)cc2c1Cc1ccc(C#N)cc1 [Example 10-5, [4-(4-Cyano-benzyl)-6-fluoro-3-methyl-naphthalen-2-yl]-acetic acid]"
